Counter-ions that a name gives are not always drawn. Like-named read-outs stand apart in the source and are kept apart here.
What was measured:
[1] = target: T1, NLRP3 (Homo sapiens (Human), UniProt Q96P20); test: THP-1 cells pyroptosis assay (LPS + nigericin, resazurin read-out); type: cell-based; conditions: 1 μg/ml LPS, 5 μM nigericin
How it was run: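 LPS-primed (1 μg/ml) human THP-1 cells in serum-free RPMI were exposed to compound (8-point half-log series, top dose as printed "10M") for 3 h at 37 °C, then to nigericin 5 μM for 1 h. Remaining viability was read by resazurin (100 μM, 1-2 h) fluorescence, and IC50 came from 4-parameter variable-slope regression.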

[2] = target: T1, NLRP3; test: Human whole blood IL1β release assay (LPS + nigericin); type: cell-based
Method: For systemic delivery, the ability to inhibit NLRP3 when the compounds are present within the bloodstream is of great importance. For this reason, the NLRP3 inhibitory activity of a number of compounds in human whole blood was investigated in accordance with the following protocol.
Human whole blood in Li-heparin tubes was obtained from healthy donors from a volunteer donor panel. • 1. Plate out 80 μl of whole blood containing 1 μg/ml of LPS in 96-well, clear bottom cell culture plate (Corning #3585) • 2. Add 10 μl compound (8 points half-log dilution with 10 μM top dose) or vehicle (DMSO 0.1% FAC) to the appropriate wells • 3. Incubate for 3 hrs at 37° C., 5% CO2 • 4. Add 10 μl nigericin (Sigma #N7143) ([…]) to all wells • 5. Incubate for 1 hr at 37° C., 5% CO2 • 6. At the end of the incubation period, spin plates at 30×g for 5 mins to pellet cells and remove 20 μl of supernatant and add to 96-well v-bottom plates for IL-1β analysis (note: these plates containing the supernatants can be stored at −80° C. to be analysed at a later date) • 7. IL-1β was measured according to the manufacturer protocol (Perkin Elmer-AlphaLisa IL-Kit A[220F-5000) • 8. IC50 data is fitted to a non-linear regression equation (log inhibitor vs response-variable slope 4-parameters)

[3] = PK, intravenous administration; type: in vivo, male Sprague Dawley rats; conditions: male, Sprague Dawley, rat
Method: Pharmacokinetic parameters were determined in male Sprague Dawley rats (Charles River, UK, 250-300 g; or Vital River Laboratory Animal Technology Co Ltd, Beijing, China, 7-9 weeks old). Animals were individually housed during the study and maintained under a 12 h light/dark cycle. Animals had free access to food and water except that orally dosed animals were food deprived overnight prior to the study. For intravenous administration, compounds were formulated as a solution in water or DMSO:PBS [10:90] in 2 mL/kg dosing volume and administered via tail vein. For oral administration, compounds were formulated as a solution in water or DMSO:water [10:90] in 5 mL/kg dosing volume and administered orally. Serial blood samples (about 120-300 μL) were taken from each animal at each of 8 time-points post dose (0.083, 0.25, 0.5, 1, 2, 4, 8 and 24 h). Samples were held on ice for no longer than 30 minutes before centrifugation (10,000 rpm (8,385 g) for 3 minutes; or 5,696 rpm (3,000 g) for 15 minutes) for plasma generation. Plasma was frozen on dry ice prior to bioanalysis. PK parameters were generated from LC-MS/MS data using Dotmatics or Phoenix WinNonlin 6.3 software.

[4] = human whole blood, 1 μg/ml LPS, nigericin, IL-1β release, read-out: HWB IC50
[5] = plasma, intravenous, dose 1 mg/kg, read-out: AUC
[6] = plasma, intravenous, dose 1 mg/kg, read-out: Cl
[7] = plasma, intravenous, dose 1 mg/kg, read-out: T1/2 (converted)
[8] = plasma, intravenous, dose 1 mg/kg, read-out: Vdss

T1 sequence (Q96P20 whole entry): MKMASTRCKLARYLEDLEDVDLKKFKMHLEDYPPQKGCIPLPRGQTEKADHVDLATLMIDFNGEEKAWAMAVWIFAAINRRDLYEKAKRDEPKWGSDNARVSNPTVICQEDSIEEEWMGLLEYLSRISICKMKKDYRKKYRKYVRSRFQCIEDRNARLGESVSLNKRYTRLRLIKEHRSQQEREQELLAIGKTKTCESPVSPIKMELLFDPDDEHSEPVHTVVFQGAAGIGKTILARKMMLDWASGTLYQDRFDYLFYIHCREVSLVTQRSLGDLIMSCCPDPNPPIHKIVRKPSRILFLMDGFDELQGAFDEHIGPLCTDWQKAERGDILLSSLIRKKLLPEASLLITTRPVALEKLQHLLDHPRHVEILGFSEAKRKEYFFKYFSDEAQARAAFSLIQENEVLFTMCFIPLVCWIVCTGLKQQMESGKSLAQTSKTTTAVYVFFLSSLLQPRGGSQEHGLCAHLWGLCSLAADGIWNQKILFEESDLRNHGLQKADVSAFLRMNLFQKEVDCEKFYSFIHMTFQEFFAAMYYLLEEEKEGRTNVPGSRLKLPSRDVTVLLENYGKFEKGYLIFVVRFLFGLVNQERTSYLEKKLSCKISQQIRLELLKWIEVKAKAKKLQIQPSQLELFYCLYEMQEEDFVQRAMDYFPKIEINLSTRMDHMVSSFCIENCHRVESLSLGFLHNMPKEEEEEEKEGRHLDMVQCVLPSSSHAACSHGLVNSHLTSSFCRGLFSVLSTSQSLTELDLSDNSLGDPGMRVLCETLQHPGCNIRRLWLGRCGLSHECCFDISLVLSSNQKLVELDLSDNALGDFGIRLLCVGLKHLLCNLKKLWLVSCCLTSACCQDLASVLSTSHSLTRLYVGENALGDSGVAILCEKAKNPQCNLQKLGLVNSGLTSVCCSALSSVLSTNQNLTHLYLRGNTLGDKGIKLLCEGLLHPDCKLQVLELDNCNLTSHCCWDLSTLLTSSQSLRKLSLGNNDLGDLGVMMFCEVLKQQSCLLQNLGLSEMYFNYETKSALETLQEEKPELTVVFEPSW

Question: Which results are given for `C#CCN1CCC(S(=O)(=O)NC(=O)Nc2c3c(cc4c2CCC4)CCC3)CC1` [Example 2, N-((1,2,3,5,6,7-Hexahydro-s-indacen-4-yl)carbamoyl)-1-(prop-2-yn-1-yl)piperidine-4-sulfonamide, potassium salt]?
Answer: IC50 [1]: 1 to 10 µM; IC50 [2, 4]: 1 to 10 µM

Question: Which IC50 [1] does the source give for `O=C(Nc1c2c(cc3c1CCC3)CCC2)NS(=O)(=O)C1CCNCC1` [Example 4, N-((1,2,3,5,6,7-Hexahydro-s-indacen-4-yl)carbamoyl)-piperidine-4-sulfonamide, potassium salt] here?
Answer: Its IC50 is 1 to 10 µM.

Question: And the IC50 [2, 4]?
Answer: Its IC50 is 1 to 10 µM.

Question: Which results are given for `CC(C)NC(=O)N1CCC(S(=O)(=O)NC(=O)Nc2c3c(cc4c2CCC4)CCC3)CC1` [Example 5, 4-(N-((1,2,3,5,6,7-Hexahydro-s-indacen-4-yl)carbamoyl)sulfamoyl)-N-isopropylpiperidine-1-carboxamide, potassium salt]?
Answer: IC50 [1]: < 1 µM; IC50 [2, 4]: 1 to 10 µM

Question: Which IC50 [1] does the source give for `O=C(Nc1c2c(cc3c1CCC3)CCC2)NS(=O)(=O)C1CCN(C(=O)C2CC2)CC1` [Example 7, 1-(Cyclopropanecarbonyl)-N-((1,2,3,5,6,7-hexahydro-s-indacen-4-yl)carbamoyl)piperidine-4-sulfonamide, potassium salt] here?
Answer: Its IC50 is < 1 µM.

Question: What about the IC50 [2, 4] of the same compound?
Answer: The IC50 was 1 to 10 µM.

Question: Which results are given for `O=C(Nc1c2c(cc3c1CCC3)CCC2)NS(=O)(=O)C1CCN(C(=O)C(F)(F)F)CC1` [Example 8, N-((1,2,3,5,6,7-Hexahydro-s-indacen-4-yl)carbamoyl)-1-(2,2,2-trifluoroacetyl)piperidine-4-sulfonamide, potassium salt]?
Answer: IC50 [1]: 1 to 10 µM; IC50 [2, 4]: < 1 µM

Question: Which IC50 [1] does the source give for `COC(=O)N1CCC(S(=O)(=O)NC(=O)Nc2c3c(cc4c2CCC4)CCC3)CC1` [Example 13, Methyl 4-(N-((1,2,3,5,6,7-hexahydro-s-indacen-4-yl)carbamoyl)sulfamoyl)piperidine-1-carboxylate, potassium salt] here?
Answer: Its IC50 is < 1 µM.

Question: What about the IC50 [2, 4] of the same compound?
Answer: The IC50 was > 10 µM.

Question: What does the source list for `O=C(Nc1c2c(cc3c1CCC3)CCC2)NS(=O)(=O)C1CN(C2CCC2)C1` [Example 18, 1-Cyclobutyl-N-((1,2,3,5,6,7-hexahydro-s-indacen-4-yl)carbamoyl)azetidine-3-sulfonamide, potassium salt]?
Answer: AUC [3, 5]: 1530 ng·h/mL; clearance [3, 6]: 10.9 mL/min/kg; half-life [3, 7]: 0.9 h; Vd [3, 8]: 0.42 L/kg

Question: With `CCN1CCC(S(=O)(=O)NC(=O)Nc2c3c(cc4c2CCC4)CCC3)C1` (centres unmarked) [Example 37, 1-Ethyl-N-((1,2,3,5,6,7-hexahydro-s-indacen-4-yl)carbamoyl) pyrrolidine-3-sulfonamide, potassium salt] as the compound, how does the AUC ([3]; plasma, intravenous, dose 1.46 mg/kg, read-out: AUC) read?
Answer: Its AUC is 2250 ng·h/mL.

Question: And the clearance ([3]; plasma, intravenous, dose 1.46 mg/kg, read-out: Cl)?
Answer: The clearance was 10.8 mL/min/kg.

Question: What about the half-life ([3]; plasma, intravenous, dose 1.46 mg/kg, read-out: T1/2 (converted)) of the same compound?
Answer: The half-life was 2.1 h.

Question: And the Vd ([3]; plasma, intravenous, dose 1.46 mg/kg, read-out: Vdss)?
Answer: The Vd was 0.59 L/kg.

Question: Which results are given for `CC(C)N1[C@@H]2CC[C@H]1C[C@@H](S(=O)(=O)NC(=O)Nc1c3c(cc4c1CCC4)CCC3)C2` [Example 45, (1R*,3R*,5S*)—N-((1,2,3,5,6,7-Hexahydro-s-indacen-4-yl)carbamoyl)-8-isopropyl-8-azabicyclo[3.2.i]octane-3-sulfonamide, potassium salt]?
Answer: AUC ([3]; in vivo, iv, 0.66 mg/kg): 703 ng·h/mL; Vd ([3]; in vivo, iv, 0.66 mg/kg): 2.06 L/kg; clearance ([3]; in vivo, iv, 0.66 mg/kg): 15.6 mL/min/kg; half-life ([3]; in vivo, iv, 0.66 mg/kg): 3.3 h

Question: What does the source list for `CCN1[C@@H]2CC[C@H]1C[C@H](S(=O)(=O)NC(=O)Nc1c3c(cc4c1CCC4)CCC3)C2` [Example 70, N-((1,2,3,5,6,7-Hexahydro-s-indacen-4-yl)carbamoyl)-8-ethyl-8-azabicyclo[3.2.1]octane-3-sulfonamide exo isomers, potassium salt]?
Answer: AUC ([3]; in vivo, iv, 1.86 mg/kg): 2550 ng·h/mL; Vd ([3]; in vivo, iv, 1.86 mg/kg): 0.53 L/kg; clearance ([3]; in vivo, iv, 1.86 mg/kg): 12.1 mL/min/kg; half-life ([3]; in vivo, iv, 1.86 mg/kg): 1.7 h

Question: With `O=C(Nc1c2c(cc3c1CCC3)CCC2)NS(=O)(=O)C1CN(Cc2ccccc2)C1` [Example 72, 1-Benzyl-N-((1,2,3,5,6,7-hexahydro-s-indacen-4-yl)carbamoyl) azetidine-3-sulfonamide, potassium salt] as the compound, how does the IC50 [2, 4] read?
Answer: The IC50 was 1 to 10 µM.

Question: Which IC50 [2] does the source give for `O=C(Nc1c2c(cc3c1CCC3)CCC2)NS(=O)(=O)C1CN(CCCl)C1` [Example 92, 1-(2-Chloroethyl)-N-((1,2,3,5,6,7-hexahydro-s-indacen-4-yl)carbamoyl)azetidine-3-sulfonamide, potassium salt] here?
Answer: The IC50 was 1 to 10 µM.

Question: Which IC50 [2, 4] does the source give for `[N-]=[N+]=NCCN1CC(S(=O)(=O)NC(=O)Nc2c3c(cc4c2CCC4)CCC3)C1` [Example 95, 1-(2-Azidoethyl)-N-((1,2,3,5,6,7-hexahydro-s-indacen-4-yl)carbamoyl)azetidine-3-sulfonamide, potassium salt] here?
Answer: Its IC50 is 1 to 10 µM.

Question: With `O=C(Nc1c2c(cc3c1CCC3)CCC2)NS(=O)(=O)C1CN(C2CCCC2)C1` [Example 99, 1-Cyclopentyl-N-((1,2,3,5,6,7-hexahydro-s-indacen-4-yl)carbamoyl)azetidine-3-sulfonamide, potassium salt] as the compound, how does the AUC [3, 5] read?
Answer: Its AUC is 1670 ng·h/mL.

Question: And the clearance [3, 6]?
Answer: Its clearance is 10 mL/min/kg.

Question: And the half-life [3, 7]?
Answer: Its half-life is 0.6 h.

Question: And the Vd [3, 8]?
Answer: The Vd was 0.42 L/kg.

Question: For `O=C(Nc1c2c(cc3c1CCC3)CCC2)NS(=O)(=O)C1CN(Cc2cncnc2)C1` [Example 125, N-((1,2,3,5,6,7-Hexahydro-s-indacen-4-yl)carbamoyl)-1-(pyrimidin-S-ylmethyl)azetidine-3-sulfonamide, potassium salt], which IC50 [2, 4] is on record?
Answer: Its IC50 is 1 to 10 µM.

Question: What does the source list for `COc1cc(-c2ccc3c(c2NC(=O)NS(=O)(=O)c2cn(C(C)C)c(=O)cn2)CCC3)ccn1` [Example 156, 4-Isopropyl-N-((5-(2-methoxypyridin-4-yl)-2,3-dihydro-11H-inden-4-yl)carbamoyl)-S-oxo-4,5-dihydropyrazine-2-sulfonamide]?
Answer: AUC [3, 5]: 1520 ng·h/mL; clearance [3, 6]: 11 mL/min/kg; half-life [3, 7]: 1 h; Vd [3, 8]: 0.31 L/kg

Question: For `CC(C)n1ccc(S(=O)(=O)NC(=O)Nc2c3c(cc4c2CCC4)CCC3)cc1=O` [Example 180, N-((1,2,3,5,6,7-Hexahydro-s-indacen-4-yl)carbamoyl)-1-isopropyl-2-oxo-1,2-dihydropyridine-4-sulfonamide, sodium salt], which IC50 [1] is on record?
Answer: The IC50 was 1 to 10 µM.

Question: For `CC(C)n1cccc(S(=O)(=O)NC(=O)Nc2c3c(cc4c2CCC4)CCC3)c1=O` [Example 182, N-((1,2,3,5,6,7-Hexahydro-s-indacen-4-yl)carbamoyl)-1-isopropyl-2-oxo-1,2-dihydropyridine-3-sulfonamide], which IC50 [1] is on record?
Answer: The IC50 was 1 to 10 µM.

Question: Which IC50 [1] does the source give for `CN(C)CCn1cc(S(=O)(=O)NC(=O)Nc2c3c(cc4c2CCC4)CCC3)ccc1=O` [Example 184, 1-(2-(Dimethylamino)ethyl)-N-((1,2,3,5,6,7-hexahydro-s-indacen-4-yl)carbamoyl)-6-oxo-1,6-dihydropyridine-3-sulfonamide] here?
Answer: The IC50 was 1 to 10 µM.

Question: Which IC50 [1] does the source give for `CCN1CCC(S(=O)(=O)NC(=O)Nc2c(-c3ccnc(OC)c3)ccc3c2CCC3)CC1` [Example 188, 1-Ethyl-N-((5-(2-methoxypyridin-4-yl)-2,3-dihydro-1H-inden-4-yl)carbamoyl)piperidine-4-sulfonamide, potassium salt] here?
Answer: Its IC50 is 1 to 10 µM.

Question: For `CCN1CCC(S(=O)(=O)NC(=O)Nc2c3c(cc4c2CCC4)CC=C3)CC1` [Example 189, 1-Ethyl-N-((1,2,3,7-tetrahydro-s-indacen-4-yl)carbamoyl) piperidine-4-sulfonamide, potassium salt], which IC50 [2, 4] is on record?
Answer: The IC50 was 1 to 10 µM.

Question: Which IC50 [1] does the source give for `CCN1CCC(S(=O)(=O)NC(=O)Nc2c(-c3ccnc(C#N)c3)ccc3c2CCC3)CC1` [Example 190, N-((5-(2-Cyanopyridin-4-yl)-2,3-dihydro-1H-inden-4-yl)carbamoyl)-1-ethylpiperidine-4-sulfonamide, potassium salt] here?
Answer: The IC50 was 1 to 10 µM.

Question: With `CN1CCCC(S(=O)(=O)NC(=O)Nc2c3c(cc4c2CCC4)CCC3)CC1` (centres unmarked) [Example 195, N-((1,2,3,5,6,7-hexahydro-s-indacen-4-yl)carbamoyl)-1-methylazepane-4-sulfonamide, potassium salt] as the compound, how does the IC50 [1] read?
Answer: The IC50 was < 1 µM.

From patent US20250115591A1, “NOVEL SULFONAMIDE CARBOXAMIDE COMPOUNDS” (INFLAZOME LIMITED, priority 2017, published 2025)
